Test results published in patent US20030027722A1, “Influencing the activity of plant growth regulators” (priority 1998, published 2003).

Key:
[1] = system: apple stalk slices; test: rooting regeneration on apple stalk slices with elicitors; format: cell-based; conditions: roots, apple, 1 μM indolebutyric or indoleacetic acid, 1 or 3 days
Method: The effect of the elicitors on rooting regeneration on apple stalk slices was studied. The stalk slices were incubated on medium with elicitors in combination with a sub-optimal auxin concentration (1 μM indolebutyric acid or 1 μM indoleacetic acid) which were added for 1 or 3 days to the plant tissue for testing. The increase was measured in the number of regenerated roots compared to the auxin control.

[2] = system: cut flowers (carnations); test: retarding the aging of cut flowers; format: in vivo, carnation
Method: The DMF was evaporated and the remaining solid was dissolved in methanol and filtered. Diluted hydrochloric acid was added to the methanol solution. After 2 hours at room temperature the solvent was evaporated and G-A-A was obtained.

[3] = system: apple; test: roots per tissue fragment in apple; format: cell-based
From the text: An apple IAA may induce a maximum of 3.5 roots per tissue fragment, while IAA-N-BSA induces a maximum of 8 roots per tissue fragment. Very recalcitrant trees like summer oak and cork oak can be rooted to a much higher percentage than with any of the conventionally applied rooting powders. The compounds described in EXAMPLE 3 and together with elicitors in Table 1 show similar effects.

[4] = system: apple and rose; test: rooting in apple and rose, stem-disk method; format: cell-based; conditions: rooting powder, stem-disks
Method: The auxin compounds were tested with respect to rooting in apple and rose
b) Tests are performed by the stem-disk method as published by Van der Krieken et al., Plant Cell Reports (1993), vol. 12, 203-206, in which the number of roots of a large number of stem-disks cut from a particular plant are counted and treated with rooting powder containing in this case the compounds described.

[5] = system: chrysanthemum; test: rooting powder comparison, rooting and development of scions, chrysanthemum; format: in vivo; parameters: key: 1: The compounds with the best relative overall effect on rooting and development were placed in category I; categories which ranged from 1 to 6
From the text: (§1) d) In Table 2 standard indol butyric acid (IBA), which is the active component in most currently used rooting powders, is compared with indol hexanolic acid (IHA) and two BSA adducts, both—coupled, namely IBA and indole acetic acid (BSA-N-IAA). The effect on rooting and the plant development (stem growth, outgrowth of new shoots, synchronicity of growth of a population of plants) were inter alia factors determining the place in the categories which ranged from 1 to 6. The compounds with the best relative overall effect on rooting and development were placed in category I. Rooting and subsequent development of scions for different types of herbaceous and woody plants differs largely for those types of plants. A rose cultivar, “enermus stur cinq”, was used as an example of a recalcitrant woody plant. The chrysanthemum species “regan” is an example of an easy to root herbaceous plant.

[6] = system: tissue explants of rose; test: shoot formation on tissue explants of rose; format: cell-based
Method: It was also observed that tissue explants of rose when treated with IBA (normal addition) or IHA, respectively, formed about 50 times more shoots (2 shoots versus 100 per 20 tissue explants) in the latter case.
In the studies for new applications of PGRs and/or elicitors, which were performed within the framework of the present invention, several new and unexpected observations were made. […] Furthermore, the inventors established that elicitors do cause a statistically significant growth retardation of all tissues, as can be illustrated for rose shoots. This effect was enhanced by PGR(s), in casu antigibberelins, i.e. paclobutrasol. […] Finally the observation was made that when tissue explants of rose were treated with respectively IBA (normal addition) or IHA, in the last case about 50 times more shoots were formed (2 shoots versus 100 per 20 tissue explants).

[7] = system: carnation; test: rooting powder comparison, rooting and development of scions, carnation; format: in vivo; parameters: key: 1: The compounds with the best relative overall effect on rooting and development were placed in category I; categories which ranged from 1 to 6
From the text: as §1

[8] = system: rose, chrysanthemum, carnation; test: rooting powder comparison, average over species; format: in vivo; conditions: for average category: average over the species tested; for overall assessment of rooting powders from Table 2: in vivo
From the text: as §1

[9] = system: apple and rose; test: root induction in apple and rose; format: in vivo
From the text: It is also possible to offer a hormone precursor, which is converted into an active hormone by metabolic processes. Indole-3-hexanoic acid (I-H-A) is converted by two beta-oxidation steps (the enzymes therefor are present in the plant) into the auxin indole-3-acetic acid (I-A-A). I-H-A is thus a special form of a slow-release source.

[10] = system: rose; test: rooting powder comparison, rooting and development of scions, rose; format: in vivo; parameters: key: 1: The compounds with the best relative overall effect on rooting and development were placed in category I; categories which ranged from 1 to 6
From the text: as §1

[11] = system: Brassica napens; test: microspore embryogenesis; format: cell-based; conditions: in combination with colchicine
[12] = system: Carnations (cultivar Miledy); test: senescence of carnations after simulated dry transport; format: in vivo, carnation
Method: The flowers were treated for one day with silver thiosulfate (STS), t-BOC-AOA, or with water in the case of controls. The flowers were then subjected to simulated dry transport conditions: 4 days at 8° C. and a relative humidity of 75%. The bottom 5 cm of each stem was then removed, and the flowers were incubated on water for 2 hours at 8° C. and a relative humidity of 75%. The flowers were then transferred to a climate room with standard flower development conditions (20° C., relative humidity of 75%, light level of 1000 lux). Senescence of the flowers was then determined every day. If flowers started wilting (mostly at the edges of the petals) or changed color they were no longer in the category of “flowers in a perfect stage” (see Table 3).

[13] = system: plantroots; test: root induction by chemically modified auxins on various plants; conditions: in vivo
From the text: Attaching IAA to BSA is done to increase the amount of IAA administered to the roots. Up to 32 IAA molecules can be attached to BSA in 2 different ways. Either as N-conjugate of IAA or as C-conjugate. Upon addition of the IAA-BSA to plantroots, the IAA is split off in the root and leads to the availability of IAA during a longer period allowing the root tissue to become sensitive.

[14] = chrys. regan (easy to root herbaceous plant)
[15] = rose enermus stur cinq (recalcitrant woody plant)
[16] = 7 d after the start of the experiment
[17] = 8 d after the start of the experiment
[18] = 9 d after the start of the experiment
[19] = 10 d after the start of the experiment
[20] = 11 d after the start of the experiment
[21] = 12 d after the start of the experiment
[22] = 13 d after the start of the experiment
[23] = 14 d after the start of the experiment
[24] = 15 d after the start of the experiment
[25] = 16 d after the start of the experiment
[26] = 17 d after the start of the experiment
[27] = 18 d after the start of the experiment
[28] = 19 d after the start of the experiment
[29] = 20 d after the start of the experiment
[30] = 21 d after the start of the experiment
[31] = 22 d after the start of the experiment

CC(=O)Nc1ccc(O)cc1 [4-acetamidophenol]
increased regeneration in relation to control (auxin alone) ([1]; elicitor 1 μM): 75%

CC(C)(NC(=O)CCC(=O)NC(C)(C)C(=O)O)C(=O)O [A-S-A]
activity in retarding the aging of the flowers, times relative to non-modified AIB ([2]; in water, concentration 5×10^−5 to 10^−3 M, carnations): 50

O=C(O)Cc1c[nH]c2ccccc12 [IAA, indole-3-acetic acid, reference compound]
maximum of roots per tissue fragment [3]: 3.5 roots per tissue fragment

CC(C)(NC(=O)CCCc1c[nH]c2ccccc12)C(=O)O [IBA-AIB]
rooting compared with standard hormone treatment / IBA alone [4]: more active than the standard hormone treatment

O=C(O)CCCCCc1c[nH]c2ccccc12 [IHA, Indole-3-hexanoic acid]
category of relative overall effect on rooting and plant development [5, 14]: 2 | category of relative overall effect on rooting and plant development ([5]; chrys. snowdon): 1 | shoots formed [6]: 100 shoots per 20 tissue explants | times more shoots than with IBA [6]: about 50 | category of relative overall effect on rooting and plant development ([7]; carnation m. brilj.): 1 | category of relative overall effect on rooting and plant development ([7]; carnation tempo): 2 | average category [8]: 1.33 | overall assessment of rooting powders from Table 2 [8]: very generally applicable and very effective | activity in root induction relative to I-A-A [9]: thirty times more active than I-A-A | category of relative overall effect on rooting and plant development [10, 15]: 1 | category of relative overall effect on rooting and plant development ([10]; rose n. brier): 1

C=CC(C)(C)OC[C@H]1O[C@H](O[C@@H]2C3=C([C@H](C)COC(C)=O)C[C@H](O)[C@]3(C)/C=C3/[C@@H](COC)CC[C@H]3[C@@H](C)[C@H]2O)[C@H](O)[C@@H](OC(C)=O)[C@@H]1O [fusicocine]
increased regeneration in relation to control (auxin alone) ([1]; elicitor 0.01 μM): 75%

CC/C=C\C[C@H]1C(=O)CC[C@@H]1CC(=O)O [jasmonic acid]
increased regeneration in relation to control (auxin alone) ([1]; elicitor 0.01 μM): 210%

CCCCCCCCC(=O)O [nonanoic acid]
increased regeneration in relation to control (auxin alone) ([1]; elicitor 0.1-1 μM): 300% | increase in microspore embryogenesis [11]: 125%

CC(C)(C)OC(=O)NOCC(=O)O [t-Boc-AOA, tertiair-butyloxycarbonylaminooxyacetic acid]
Percentage of flowers in the perfect stage after treatment [12, 16]: 100% | Percentage of flowers in the perfect stage after treatment [12, 17]: 100% | Percentage of flowers in the perfect stage after treatment [12, 18]: 100% | Percentage of flowers in the perfect stage after treatment [12, 19]: 100% | Percentage of flowers in the perfect stage after treatment [12, 20]: 100% | Percentage of flowers in the perfect stage after treatment [12, 21]: 100% | Percentage of flowers in the perfect stage after treatment [12, 22]: 100% | Percentage of flowers in the perfect stage after treatment [12, 23]: 100% | Percentage of flowers in the perfect stage after treatment [12, 24]: 100% | Percentage of flowers in the perfect stage after treatment [12, 25]: 100% | Percentage of flowers in the perfect stage after treatment [12, 26]: 85% | Percentage of flowers in the perfect stage after treatment [12, 27]: 75% | Percentage of flowers in the perfect stage after treatment [12, 28]: 53% | Percentage of flowers in the perfect stage after treatment [12, 29]: 30% | Percentage of flowers in the perfect stage after treatment [12, 30]: 4% | Percentage of flowers in the perfect stage after treatment [12, 31]: 0% | delaying flower senescence, compared with STS ([12]; summary of Table 3): generally comparable to or superior to STS

O=C(OC[C@H]1O[C@@H](OC(=O)c2cc(O)c(O)c(OC(=O)c3cc(O)c(O)c(O)c3)c2)[C@H](OC(=O)c2cc(O)c(O)c(OC(=O)c3cc(O)c(O)c(O)c3)c2)[C@@H](OC(=O)c2cc(O)c(O)c(OC(=O)c3cc(O)c(O)c(O)c3)c2)[C@@H]1OC(=O)c1cc(O)c(O)c(OC(=O)c2cc(O)c(O)c(O)c2)c1)c1cc(O)c(O)c(OC(=O)c2cc(O)c(O)c(O)c2)c1 [tannic acid]
increased regeneration in relation to control (auxin alone) ([1]; elicitor 1 μM): 225%

IAA-C-BSA: indoleacetic acid-C-conjugate with BSA
effectiveness in root induction, comparison [13]: somewhat less effective in root induction as IAA-N-BSA, but still better than IAA alone

IAA-N-BSA: indoleacetic acid-N-conjugate with BSA
category of relative overall effect on rooting and plant development [5, 14]: 1 | category of relative overall effect on rooting and plant development ([5]; chrys. snowdon): 2 | maximum of roots per tissue fragment [3]: 8 roots per tissue fragment | category of relative overall effect on rooting and plant development ([7]; carnation m. brilj.): 1 | category of relative overall effect on rooting and plant development ([7]; carnation tempo): 3 | average category [8]: 1.8 | overall assessment of rooting powders from Table 2 [8]: especially suited for recalcitrant plants | category of relative overall effect on rooting and plant development [10, 15]: 1 | category of relative overall effect on rooting and plant development ([10]; rose n. brier): 3

IBA-N-BSA: N-conjugate with BSA made with IBA instead of IAA
category of relative overall effect on rooting and plant development [5, 14]: 4 | category of relative overall effect on rooting and plant development ([5]; chrys. snowdon): 1 | category of relative overall effect on rooting and plant development ([7]; carnation m. brilj.): 1 | category of relative overall effect on rooting and plant development ([7]; carnation tempo): 3 | average category [8]: 2.0 | category of relative overall effect on rooting and plant development [10, 15]: 2 | category of relative overall effect on rooting and plant development ([10]; rose n. brier): 1

glucose-acetate-amino-oxyacetic acid [G-A-A]
effect against aging ([2]; carnation): effective means against aging

indole butyric acid [IBA, reference compound]
category of relative overall effect on rooting and plant development [5, 14]: 4 | category of relative overall effect on rooting and plant development ([5]; chrys. snowdon): 1 | shoots formed [6]: 2 shoots per 20 tissue explants | average category [8]: 2.25 | category of relative overall effect on rooting and plant development [10, 15]: 3 | category of relative overall effect on rooting and plant development ([10]; rose n. brier): 1

silver thiosulfate [STS, reference compound]
Percentage of flowers in the perfect stage after treatment [12, 16]: 100% | Percentage of flowers in the perfect stage after treatment [12, 17]: 100% | Percentage of flowers in the perfect stage after treatment [12, 18]: 100% | Percentage of flowers in the perfect stage after treatment [12, 19]: 100% | Percentage of flowers in the perfect stage after treatment [12, 20]: 100% | Percentage of flowers in the perfect stage after treatment [12, 21]: 100% | Percentage of flowers in the perfect stage after treatment [12, 22]: 100% | Percentage of flowers in the perfect stage after treatment [12, 23]: 100% | Percentage of flowers in the perfect stage after treatment [12, 24]: 100% | Percentage of flowers in the perfect stage after treatment [12, 25]: 100% | Percentage of flowers in the perfect stage after treatment [12, 26]: 88% | Percentage of flowers in the perfect stage after treatment [12, 27]: 65% | Percentage of flowers in the perfect stage after treatment [12, 28]: 8% | Percentage of flowers in the perfect stage after treatment [12, 29]: 0% | Percentage of flowers in the perfect stage after treatment [12, 30]: 0% | Percentage of flowers in the perfect stage after treatment [12, 31]: 0%
